# Key:
# [1] = Heart rate by ECG telemetry in mice; format: in vivo, C57BL/6 mice; details: for heart rate in telemetry tracing: after injection, saline approximately 600 BPM
# Description: In more exemplary embodiments, compounds 5 and 5-P were further examined for their ability to activate multiple S1P receptors in vivo. In particular, mouse heart rate and lymphocyte sequestration were examined. Mouse heart rate decreases causing bradycardia when S1P receptor 3 is activated while in humans this effect may be mediated by S1P receptor 1. In both mice and humans, lymphocytes are sequestered when the S1P receptor 1 is activated.
# As shown in the telemetry readings detailed in FIG. 36, FTY720 (B) slowed heart rate comparison to compound 5 (C) and the control (A, saline). As shown in A, after administering saline, normal sinus rhythm with clearly discernible P waves, representing atrial depolarization, and QRS complexes, representing ventricular depolarization, at regular intervals is observed. The heart rate in this tracing was approximately 600 beats per minute (BPM). […] Finally, as shown in C, for exemplary embodiment compound 5, similar to the saline injection, normal sinus rhythm with well-defined and consistent P waves and QRS complexes were present following injection. The heart rate in this tracing was approximately 600 BPM, similar to saline.
# Heart rate: C57BL/6 mice are surgically implanted with DSI TA-ETAF20 electrocardiographic telemetry devices (Data Sciences International, St. Paul, Minn.). The electrocardiographic data is collected and recorded using the PhysioTel telemetry system and Dataquest A.R.T 4.0 software (DSI). The telemetry device is implanted in the mouse's abdominal cavity with biopotential leads sutured in place in the chest wall. Buprenorphine (0.05 mg/kg) is administered every 12 h after surgery for pain management and enrofloxacin (3 mg/kg) is administered 2× per day for 7 days post-surgery as an antibiotic. Mice are permitted two weeks recovery after surgery before initiation of baseline telemetry recordings. Heart rate is calculated from ECG data taken in the freely moving, conscious mice. Mice are divided into two groups of 3 mice and treated intraperitoneally with a single dose of vehicle (0.9% saline or 20% acidified DMSO in 0.9% saline), 10 mg/kg FTY720, FTY720-Phosphate, 5, or 5-P and heart rate monitored continuously for 10 h. Mice are rested for two weeks at which point the experiment is repeated with the mice assigned to the alternate group. These experiments are performed in accordance with all national or local guidelines and regulations and were approved by the UCI Institutional Animal Care and Use Committee.
# [2] = tested on: subcutaneous SW620 xenograft tumors; assay: SW620 xenograft study in nude mice; format: in vivo
# Procedure: In even another exemplary study, anti-neoplasm potency of the constrained pyrrolidine sphingolipid-like compounds in xenograft tumor animal studies. Nude mice bearing subcutaneous SW620 xenograft tumors were treated daily with 10 mg/kg FTY720 or 20 mg/kg of compounds 5 or 15 by intraperitoneal injection. […] Furthermore, these compounds retain many of the beneficial abilities of FTY720, such as, for example water solubility, oral bioavailability, and anti-tumor activity but no longer trigger bradycardia. Thus, these compounds are ideal for medicaments and treatments for neoplasms.
# SW620 and SW480 xenograft studies: For SW620 xenograft studies, two and one half million luciferase-expressing SW620 colon cancer cells suspended in PBS with 2% FCS are injected subcutaneously in the flank of 7 week old male nude mice (Charles Rivers Labs, Crl:NU(NCr)-Foxn1nu). When tumors reached 100 mm^3 in volume, mice are assigned to groups with matched average tumor volumes and animal weights. Four groups containing 7 mice are treated intraperitoneally with either vehicle (0.9% saline), 10 mg/kg FTY720, or 20 mg/kg compound 5 or compound 15. Tumor length and width are measured with calipers at 7 and 11 days of treatment. Tumor volume is calculated using the formula volume (mm^3)=length [mm]×(width [mm])^2×0.52. The average fold change in the volume of each tumor over time is shown.
# S1P receptor 3 = target: T1, S1P receptor 3 (Homo sapiens, UniProt Q99500); assay: S1P receptor activation in CHO cells, S1P3; format: cell-based; details: CHO cells over-expressing human S1P3
# T1 construct: expressed in transfected cells
# T1 sequence (Q99500 whole entry): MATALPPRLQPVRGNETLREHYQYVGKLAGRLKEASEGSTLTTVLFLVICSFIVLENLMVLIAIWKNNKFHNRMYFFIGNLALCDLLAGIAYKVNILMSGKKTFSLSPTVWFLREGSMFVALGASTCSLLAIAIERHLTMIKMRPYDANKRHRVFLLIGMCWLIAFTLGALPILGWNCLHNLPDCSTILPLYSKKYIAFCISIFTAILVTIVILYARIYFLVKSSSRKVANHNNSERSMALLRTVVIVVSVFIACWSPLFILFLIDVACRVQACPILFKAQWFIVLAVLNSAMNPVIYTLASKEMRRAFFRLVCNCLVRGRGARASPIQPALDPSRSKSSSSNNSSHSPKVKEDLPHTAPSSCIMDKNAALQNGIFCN
# Description: (§1) Phosphorylation may have effects on S1P receptor activity that could cause bradycardia. Bradycardia, the dose-limiting toxicity that prevents the use of FTY720 in cancer patients, stems from FTY720-P's actions on S1P receptors 1 and 3. (Camm, J., et al. (2014) Am. Heart J. 168, 632-644; Cohen, J. A., Chun, J. (2011) Ann. Neurol. 69, 759-777; Sanna, M. G., et al. (2004) J. Biol. Chem. 279, 13839-13848; the disclosures of which are incorporated herein by reference). Phosphorylation by sphingosine kinase may make compounds competent to activate S1P receptors. FTY720, for example, when phosphorylated is known to activate S1P receptors 1 and 3. Because compound 5 could be phosphorylated, the activity of compound 5 and its phosphate 5-P (FIG. 28) on S1P receptors was evaluated (FIG. 32).
# (§2) 51P1-5 activation: Chinese hamster ovary (CHO) cells stably over-expressing the different human 51P receptor subtypes are used. S1P1, S1P4 and S1P5 overexpressing CHO cells are cultured in medium containing alpha-MEM supplemented with 10% FBS, 50 μg/ml gentamycin and 0.5 mg/ml G418. S1P2 and S1P3 overexpressing CHO cells are cultured in RPMI containing 10% FBS, 50 μg/ml gentamycin and 0.5 mg/ml G418. Prior to stimulation, cells are rendered serum-free for 24 h. Stimulation is carried out for 10 min in serum-free DMEM containing 0.1 mg/ml of fatty-acid free BSA in the absence or presence of the various compounds or 51P. Protein lysates are prepared using a buffer containing (50 mM Tris pH 7.4, 150 mM NaCl, 10% glycerol, 1% Triton X-100, 2 mM EDTA, 2 mM EGTA, 40 mM β-glycerophosphate, 50 mM sodium fluoride, 10 mM sodium pyrophosphate, 2 mM dithiothreitol, 0.2 mM sodium orthovanadate). Cells are homogenized by one 5 sec burst in a MSE Ultrasonic Disintegrator, centrifuged and taken for protein determination. Equal amounts of protein are separated by SDS-PAGE (10% polyacrylamide gel), transferred to nitrocellulose membranes and subjected to Western blot analysis. Bands were stained using IRDye® secondary antibodies and visualized by the LICOR Odyssey® Fc Imaging system. Antibodies against phospho-Thr202/Tyr204-p42/p44-MAPK and phospho-Ser PKC substrate are from Cell Signaling, Frankfurt am Main, Germany. Polyclonal antisera against total p42 and total p44 were generated and characterized as previously described. (Huwiler, A.; Pfeilschifter, J. Br. J. Pharmacol. 1994, 113, 1455-1463; disclosure of which is incorporated herein by reference).
# S1P receptor 5 = target: T2, S1P receptor 5 (Homo sapiens, UniProt Q9H228); assay: S1P receptor activation in CHO cells, S1P5; format: cell-based; details: CHO cells over-expressing human S1P5
# T2 construct: expressed in transfected cells
# T2 sequence (Q9H228 whole entry): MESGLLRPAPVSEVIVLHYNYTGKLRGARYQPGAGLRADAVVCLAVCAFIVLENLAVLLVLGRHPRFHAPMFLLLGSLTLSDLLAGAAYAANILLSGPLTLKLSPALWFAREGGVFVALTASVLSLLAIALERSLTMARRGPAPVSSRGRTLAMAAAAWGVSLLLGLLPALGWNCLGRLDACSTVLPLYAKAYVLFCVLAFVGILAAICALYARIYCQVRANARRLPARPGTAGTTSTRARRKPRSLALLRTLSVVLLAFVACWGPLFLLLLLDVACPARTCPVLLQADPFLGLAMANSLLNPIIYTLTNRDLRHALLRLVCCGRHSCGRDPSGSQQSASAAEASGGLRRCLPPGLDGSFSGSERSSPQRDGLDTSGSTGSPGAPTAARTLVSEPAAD
# Description: as §1, §2
SMILES,heart rate in telemetry tracing [1],"decrease of heart rate ([1]; single dose 10 mg/kg intraperitoneally, compared to saline vehicle)",tumor growth of SW620 xenografts ([2]; 10 mg/kg daily by intraperitoneal injection),activation of S1P receptor 3 (S1P receptor 3),activation of S1P receptor 5 (S1P receptor 5),"effect on heart rate ([1]; single dose 10 mg/kg intraperitoneally, compared to saline controls)",tumor growth of SW620 xenografts ([2]; 20 mg/kg daily by intraperitoneal injection)
"CCCCCCCCc1ccc(CCC(N)(CO)CO)cc1.Cl [FTY720, 2-Amino-2-[2-(4-octylphenyl)ethyl]propane 1,3-diol hydrochloride, reference compound]",approximately 200 BPM,approximately 50%,inhibited tumor growth,,,,
CCCCCCCCc1ccc([C@@H]2CCN[C@H]2CO)cc1.Cl [Compound 6],,,,failed to activate,failed to activate,,
"CCCCCCCCc1ccc([C@H]2CCN[C@@H]2CO)cc1.Cl [Compound 5, (2S,3R)-2-(hydroxymethyl)-3-(4-octylphenyl)Pyrrolidinium chloride]",approximately 600 BPM,,,failed to activate,failed to activate,no significant effect,inhibited tumor growth
